Assay results as given in paper PMC11246197 (Journal of medicinal chemistry, 2024).
Where two headings read alike, the source gives them in different places.

Assays:
BEAS-2B cells = type: cell-based, human; conditions: BNPP (CES1 inhibitor) up to 20 μM co-incubated with 10 μM ProTide
[1] = Plasma PK after oral administration in Ces1c−/− mice; conditions: 54.4 μmole/kg
[2] = Prodrug hydrolysis in human liver S9 fractions; type: in vitro ADME; conditions: 15 min incubation
[3] = Prodrug hydrolysis in human intestine S9 fractions; type: in vitro ADME; conditions: 15 min incubation
[4] = target: T1, recombinant human CES1 (rhCES1) (Homo sapiens, UniProt P23141); assay: Hydrolysis of ProTides by recombinant human CES1; type: biochemical; conditions: 20 μM prodrug, 40 ng/μL rhCES1, 20 min, Tris buffer pH 7.5, 37 °C, n = 3
T1 sequence (P23141 18-567): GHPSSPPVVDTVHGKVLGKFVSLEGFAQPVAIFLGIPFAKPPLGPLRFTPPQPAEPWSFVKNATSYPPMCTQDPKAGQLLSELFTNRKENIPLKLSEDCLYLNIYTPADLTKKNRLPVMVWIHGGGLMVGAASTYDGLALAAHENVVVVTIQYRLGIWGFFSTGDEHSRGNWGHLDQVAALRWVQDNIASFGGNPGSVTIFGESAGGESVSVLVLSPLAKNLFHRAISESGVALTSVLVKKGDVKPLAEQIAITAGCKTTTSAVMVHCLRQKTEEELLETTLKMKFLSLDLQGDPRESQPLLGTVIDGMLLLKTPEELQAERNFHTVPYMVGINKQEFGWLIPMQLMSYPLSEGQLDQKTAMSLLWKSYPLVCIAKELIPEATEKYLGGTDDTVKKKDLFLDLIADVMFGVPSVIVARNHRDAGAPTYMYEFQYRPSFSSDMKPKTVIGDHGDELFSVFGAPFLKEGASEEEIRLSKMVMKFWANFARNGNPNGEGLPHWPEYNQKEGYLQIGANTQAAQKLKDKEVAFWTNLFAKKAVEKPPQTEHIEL

[5] = Plasma PK after IV administration; conditions: for AUC(0-inf) / AUC(0-t) / Cmax / Vd / half-life / concentration at 15 min: male, mouse, plasma, iv; for AUC(0-inf) / AUC(0-t) / Cmax / Vd / half-life: Ces1c−/− (JAX stock # 014096)
[6] = cited from earlier work
[7] = target: recombinant human CatA (rhCatA) (Homo sapiens, UniProt P10619); assay: Hydrolysis of ProTides by recombinant human CatA; type: biochemical; conditions: 20 μM prodrug, 0.5 ng/μL rhCatA, 10 min, MES buffer pH 5.5, 37 °C, n = 3
Chain of recombinant human CatA (rhCatA) (P10619 327-480): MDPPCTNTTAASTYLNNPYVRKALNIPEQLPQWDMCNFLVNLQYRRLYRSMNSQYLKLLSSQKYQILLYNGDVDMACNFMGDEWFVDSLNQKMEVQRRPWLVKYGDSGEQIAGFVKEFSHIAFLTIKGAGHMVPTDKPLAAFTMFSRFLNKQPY
Chain of recombinant human CatA (rhCatA) (P10619 29-326): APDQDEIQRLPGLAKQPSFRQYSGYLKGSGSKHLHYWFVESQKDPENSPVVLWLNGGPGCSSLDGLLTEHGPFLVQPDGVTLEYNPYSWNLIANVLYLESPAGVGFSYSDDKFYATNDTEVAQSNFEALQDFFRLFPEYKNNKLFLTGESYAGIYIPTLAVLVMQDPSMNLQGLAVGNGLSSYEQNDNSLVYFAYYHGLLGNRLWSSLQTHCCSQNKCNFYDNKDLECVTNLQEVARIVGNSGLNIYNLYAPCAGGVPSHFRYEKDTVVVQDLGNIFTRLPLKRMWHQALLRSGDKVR

[8] = cited from earlier work; remark: listed apart in the source
[9] = Ex vivo human plasma stability; conditions: 10 μM, 37 °C, 4 hours
[10] = male, Ces1c−/− (Ces1c knockout), in vivo, iv
[11] = 24 h, 10 μM
[12] = tested on: human bronchial epithelial cells; conditions: within 48 hours after drug treatment; cited from earlier work
iPSC-AT2 = conditions: read-out: 50% cytotoxic concentration (CC50); cited from earlier work
[13] = wild-type mice; cited from earlier work
VeroE6 cells = conditions: read-out: 50% cytotoxic concentration (CC50); cited from earlier work
lung virus titers = conditions: 2 days post infection, cited from earlier work
[14] = cited from earlier work; remark: listed apart in the source
[15] = IV bolus, 54.4 μmole/kg, Ces1c−/− mice

O=[N+]([O-])c1ccc(OP(=O)(O)Oc2ccc([N+](=O)[O-])cc2)cc1 [BNPP, Bis-(p-nitrophenyl) phosphate]
Effect of inhibitor on the formation of RDV-TP (BEAS-2B cells): did not significantly alter

CC(C)C(=O)OC[C@H]1O[C@@](C#N)(c2ccc3c(N)ncnn23)[C@H](OC(=O)C(C)C)[C@@H]1OC(=O)C(C)C [GS-621763]
Prodrug form in plasma after oral administration [1]: barely detected
Prodrug remaining in human liver homogenate [2]: could barely be detected
Prodrug remaining in human intestine homogenate [3]: could barely be detected

CC(C)OC(=O)[C@H](C)N[P@](=O)(OC[C@H]1O[C@@](C#N)(c2ccc3c(N)ncnn23)[C@H](O)[C@@H]1O)Oc1ccccc1 [IsoRDV]
Activity of rhCES1 for prodrug hydrolysis [4]: 7.7 ± 1.4 pmol/min/μg protein
Oral bioavailability (estimated) [1]: less than 2%
Prodrug form in plasma after oral administration [1]: barely detected
AUC0-∞ of the administered compound in plasma [5, 15]: 4,950.3 ± 628.2 h⋅nM
CL/F of the administered compound [5, 15]: 0.28 ± 0.03 L⋅h^−1
Vd (apparent distribution volume) [5, 15]: 0.42 ± 0.17 L
t1/2 of the administered compound in plasma [5, 15]: 1.04 ± 0.33 h
AUC0-t of the administered compound in plasma ([5]; IV bolus, 54.4 μmole/kg, Ces1c−/− mice, AUC0-t(8h)): 4,941.6 ± 626.4 h⋅nM
Stability in human plasma [6]: 1561 min
Activity of rhCatA for prodrug hydrolysis [7]: 236.7 ± 172.8 pmol/min/μg protein
logD [8]: 1.1
Hydrolyzed in human plasma [9]: ~15%

N#C[C@@]1(c2ccc3c(N)ncnn23)O[C@H](CO)[C@@H](O)[C@H]1O [Nuc]
CL/F of the administered compound [5, 15]: 0.052 ± 0.002 L⋅h^−1
AUC(0-inf) ([5]; 54.4 μmole/kg): 26.3 µM·h
AUC(0-t) ([5]; 54.4 μmole/kg): 25.1 µM·h
Cmax ([5]; 54.4 μmole/kg): 18.1 µM
Vd ([5]; 54.4 μmole/kg): 0.47 ± 0.29 L
half-life ([5]; 54.4 μmole/kg): 6.34 ± 4.01 h
concentration at 15 min ([5]; 54.4 μmole/kg): 18.1 µM
RDV-TP concentrations in the mouse lung relative to estimated EC50/EC90 [10]: constantly below EC50
Reduction after incubation with human plasma [11]: 5%
RDV-TP levels, fold lower than RDV [12]: at least 40 fold

CCC(CC)COC(=O)[C@H](C)N[P@](=O)(OC[C@H]1O[C@@](C#N)(c2ccc3c(N)ncnn23)[C@H](O)[C@@H]1O)Oc1ccccc1 [RDV, remdesivir]
Activity of rhCES1 for prodrug hydrolysis [4]: 15.5 ± 1.8 pmol/min/μg protein
Prodrug form in plasma after oral administration [1]: barely detected
CC50 (iPSC-AT2): 32.7 µM
CL/F of the administered compound [5, 15]: 1.06 ± 0.44 L⋅h^−1
Presence in plasma 4 hours after IV administration [5, 15]: barely detectable
AUC(0-inf) ([5]; 54.4 μmole/kg): 1.58 µM·h
AUC(0-t) ([5]; 54.4 μmole/kg): 1.57 µM·h
Cmax ([5]; 54.4 μmole/kg): 1.37 µM
Vd ([5]; 54.4 μmole/kg): 1.91 ± 0.94 L
half-life ([5]; 54.4 μmole/kg): 1.25 ± 0.39 h
concentration at 15 min ([5]; 54.4 μmole/kg): 1.37 µM
Portion of plasma RDV that disappeared ([5]; within 30 minutes after IV administration): about 90%
Plasma half-life in mice [13]: < 5 min
Half-life in human plasma [6]: 1.15 h
Half-life in human plasma ex vivo [6]: 1.15 h
Stability in human plasma [6]: 69 min
Activity of rhCatA for prodrug hydrolysis [7]: 1,786.5 ± 179.2 pmol/min/μg protein
CC50 (VeroE6 cells): 101 µM
Effect on lung virus titers (lung virus titers; 25 mg/kg twice daily): significantly reduced the lung virus titers
Effect on lung virus titers (lung virus titers; 50 mg/kg single dose daily): could not
Plasma half-life in Ces1c−/− mice [14]: ~ 25 min
Hydrolyzed in human plasma [9]: approximately 70%
